According to patent publication US6281214A, “Biphenyl derivatives” (Eisai Co., Ltd, priority 1994, dated 2001):
Where two headings read alike, the source gives them in different places.

Legend:
Parameters in all cases: species or system SD rats
serotonin S2 receptor = target: T1, serotonin S2 receptor (Rattus norvegicus, UniProt P14842); experiment: serotonin S2 receptor binding test ([3H] Ketanserin Binding Test); settings: 1 nM [3H] Ketanserin, rat cortex, 37° C., 15 minutes
T1 construct: The receptor fraction prepared from the cortex was molten and suspended; from tissue; host or cells: cerebral cortex of SD rats (membrane fraction)
T1 sequence (P14842 whole entry): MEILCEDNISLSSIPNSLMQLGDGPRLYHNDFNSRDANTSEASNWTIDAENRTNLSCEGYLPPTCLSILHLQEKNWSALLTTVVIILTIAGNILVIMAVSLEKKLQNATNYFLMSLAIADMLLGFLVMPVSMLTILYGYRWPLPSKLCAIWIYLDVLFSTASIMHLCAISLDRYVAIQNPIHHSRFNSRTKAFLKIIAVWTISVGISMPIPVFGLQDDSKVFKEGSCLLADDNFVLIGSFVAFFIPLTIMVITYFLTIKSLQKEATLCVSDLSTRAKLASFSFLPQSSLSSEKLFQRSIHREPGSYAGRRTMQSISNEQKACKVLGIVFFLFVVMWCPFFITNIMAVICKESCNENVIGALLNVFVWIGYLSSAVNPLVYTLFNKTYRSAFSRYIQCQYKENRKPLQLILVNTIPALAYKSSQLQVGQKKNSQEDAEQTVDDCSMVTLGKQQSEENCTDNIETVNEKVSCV
How it was run: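 Rat (SD, 6–8 weeks) cortical membranes in 50 mM Tris-HCl pH 7.4 were incubated with 1 nM [3H]ketanserin for 15 min at 37 °C, then filtered and counted. Nonspecific binding was defined with methysergide. IC50 was obtained by probit analysis and converted to Ki using the Scatchard-derived Kd.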

dopamine D2 receptor = target: T2, dopamine D2 receptor (Rattus norvegicus, UniProt P61169); experiment: dopamine D2 receptor binding test ([3H] Spiperone Binding Test); settings: 1 nM [3H] Spiperone, rat corpus striatum, room temperature, 60 minutes
T2 construct: the receptor fraction prepared from the corpus striatum was molten and suspended; from tissue; host or cells: corpus striatum of SD rats (membrane fraction)
T2 sequence (P61169 whole entry): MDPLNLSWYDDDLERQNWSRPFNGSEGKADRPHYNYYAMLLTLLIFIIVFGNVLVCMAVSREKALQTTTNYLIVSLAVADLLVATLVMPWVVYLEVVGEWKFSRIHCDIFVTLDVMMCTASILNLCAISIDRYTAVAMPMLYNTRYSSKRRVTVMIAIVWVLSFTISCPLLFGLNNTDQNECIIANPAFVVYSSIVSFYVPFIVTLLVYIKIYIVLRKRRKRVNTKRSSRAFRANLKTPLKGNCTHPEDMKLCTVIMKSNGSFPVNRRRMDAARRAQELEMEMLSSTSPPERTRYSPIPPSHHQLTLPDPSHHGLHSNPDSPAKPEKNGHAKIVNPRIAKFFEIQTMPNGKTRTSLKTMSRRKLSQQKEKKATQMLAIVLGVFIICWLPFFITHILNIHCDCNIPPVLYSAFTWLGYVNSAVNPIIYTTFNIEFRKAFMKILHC
How it was run: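 Rat (SD, 6–8 weeks) corpus striatum membranes in 50 mM Krebs-Tris pH 7.4 were incubated with 1 nM [3H]spiperone at room temperature for 60 minutes, with nonspecific binding defined by excess spiperone. IC50 came from probit analysis; Ki was derived using radioligand concentration and Scatchard Kd.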

adrenergic α1 receptor = adrenergic α1 receptor binding test ([3H] Prazosin Binding Test); settings: 1 nM [3H] Prazosin, rat cortex, room temperature, 60 minutes
How it was run: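 Rat (SD, 6-8 weeks) cerebral cortex membranes in 50 mM Tris-HCl pH 7.4 incubated with 1 nM [3H]prazosin for 60 min at room temperature; nonspecific binding defined with phentolamine. IC50 by probit method, converted to Ki using radioligand concentration and Scatchard-derived Kd.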

[1] = read-out: Ki value, dopamine D2 receptor

Compound | Ki (serotonin S2 receptor) [nM] | Ki (dopamine D2 receptor; [1]) [nM] | Ki (adrenergic α1 receptor) [nM] | Ki (dopamine D2 receptor; Ki value, dopamine D2 receptor) [nM]
COc1c(C(=O)Cc2ccccc2)cc(N2CCN(Cc3ccccc3)CC2)cc1-c1ccccc1 [Example 126, 1-Benzyl-4-(3-phenyl-4-methoxy-5-phenylacetyl)phenylpiperazine] | 27.3 | 54.6 | > 1000 | –
CCCOCc1cc(N2CCN(CC)CC2)cc(-c2ccccc2C)c1Cl [Example 168, 1-Ethyl-4-[3-(2-tolyl)-4-chloro-5-propoxymethyl]phenylpiperazine] | 180 | 31.9 | > 1000 | –
CCN1CCN(c2cc(-c3ccccc3C)c(Cl)c(C(F)F)c2)CC1 [Example 185, 1-Ethyl-4-[3-(2-tolyl)-4-chloro-5-difluoromethyl]phenylpiperazine] | > 100 | 0.58 | > 1000 | –
CCCS(=O)(=O)Nc1cc(N2CCN(C)CC2)cc(-c2ccccc2Cl)c1Cl [Example 35, 1-Methyl-4-[3-(2-chloropheyl)-4-chloro-5-propanesulfonylamino]phenylpiperazine] | 3.37 | 0.5 | 17 | –
CCN1CCN(c2ccc(OC(C)C)c(-c3ccccc3)c2)CC1 [Example 61, 1-Ethyl-4-(3-phenyl-4-isopropxy)phenylpiperazine] | > 1000 | > 1000 | > 1000 | –
CCN1CCN(c2cc(CC(C)O)c(OC)c(-c3ccccc3)c2)CC1 (stereo not drawn) [Example 75, 1-Ethyl-4-[3-phenyl-4-methoxy-5-(2-hydroxypropyl)]phenylpiperazine] | 486 | > 1000 | > 1000 | –
CCC(F)c1cc(N2CCN(CCc3ccccn3)CC2)cc(-c2ccccc2C)c1Cl (stereo not drawn) [Example 213, 1-[2-(2-Pyridyl)ethyl]-4-[3-(2-tolyl)-4-chloro-5-(1-fluoropropyl)]phenylpiperazine] | 10.3 | 14.3 | 236 | –
CCC(C)c1cc(N2CCN(CC)CC2)cc(-c2ccccc2)c1Cl (stereo not drawn) [Example 147, 1-Ethyl-4-[3-phenyl-4-chloro-5-(1-methylpropyl)]phenylpiperazine] | 15.1 | 0.45 | 33.2 | –
CCC(F)c1cc(-c2ccccc2)cc(N2CCN(CC)CC2)c1 (stereo not drawn) [Example 129, 1-Ethyl-4-[3-phenyl-5-(1-fluoropropyl)]phenylpiperazine] | 34.9 | – | 39.8 | 1.86
CCC(F)c1cc(N2CCN(CC)CC2)cc(-c2ccccc2CF)c1Cl (stereo not drawn) [Example 208, 1-Ethyl-4-[3-(2-fluoromethylphenyl)-4-chloro-5-(1-fluoropropyl)]phenylpiperazine] | 16.1 | 3.46 | 2380 | –
CCC(F)c1cc(N2CCN(CC)CC2)cc(-c2ccccc2C#N)c1Cl (stereo not drawn) [Example 21] | 14.4 | 1.85 | 418 | –
CCCC(F)c1cc(N2CCN(C)CC2)cc(-c2ccccc2C)c1Cl (stereo not drawn) [Example 53, 1-Methyl-4-[3-(2-tolyl)-4-chloro-5-(1-fluorobutyl)]phenylpiperazine] | 12.4 | 6.73 | > 1000 | –
CCN1CCN(c2cc(C(=O)OC)c(OC)c(-c3ccccc3)c2)CC1 [Example 74, 1-Ethyl-4-(3-phenyl-4-methoxy-5-methoxycarbonyl)phenylpiperazine] | 374 | > 1000 | > 1000 | –
CCN1CCN(c2cc(-c3ccccc3)c(OC)c(C(F)Cc3ccncc3)c2)CC1 (stereo not drawn) [Example 121, 1-Ethyl-4-{3-phenyl-4-methoxy-5-[1-fluoro-2-(4-pyridyl)ethyl]}phenylpiperazine] | 168 | 11 | 308 | –
CCN1CCN(c2cc(C(=O)Cc3ccccc3)c(OC)c(-c3ccccc3)c2)CC1 [Example 92, 1-Ethyl-4-(3-phenyl-4-methoxy-5-phenylacetyl)phenylpiperazine] | 1.14 | 2.71 | 942 | –
CCN1CCN(c2cc(-c3ccccc3)c(OC)c(C(F)(F)CC)c2)CC1 [Example 186, 1-Ethyl-4-[3-phenyl-4-methoxy-5-(1,1-difluoropropyl)]phenylpiperazine] | 4.29 | 2.96 | > 1000 | –
CCCc1cc(N2CCN(CC)CC2)cc(-c2ccc(C(F)(F)F)cc2)c1OC [Example 85, 1-Ethyl-4-[3-(4-trifluoromethylphenyl)-4-methoxy-5-propyl]phenylpiperazine] | > 1000 | > 1000 | > 1000 | –
CCN1CCN(c2cc(-c3ccc(F)cc3)c(OC)c(C(C)C)c2)CC1 [Example 78, 1Ethyl-4-[3-(4-fluorophenyl)-4-methoxy-5-isopropyl]phenylpiperazine] | 33.2 | 4.22 | 74.8 | –

Compound | Ki (serotonin S2 receptor) [nM] | Ki (dopamine D2 receptor; [1]) [nM] | Ki (adrenergic α1 receptor) [nM] | Ki (dopamine D2 receptor; Ki value, dopamine D2 receptor) [nM]
CCCC(O)c1cc(N2CCN(C)CC2)cc(-c2ccccc2C)c1Cl (stereo not drawn) [Example 174] | 48.7 | 31.8 | > 1000 | –
CCCS(=O)(=O)Nc1cc(N2CCN(C)CC2)cc(-c2ccccc2C)c1Cl [Example 29, 1-Methyl-4-[3-(2-tolyl)-4-chloro-5-propanesulfonylamino]phenylpiperazine] | 4.86 | 1.19 | 50.1 | –
CCN1CCN(c2cc(-c3ccc(F)cc3C)c(Cl)c(S(=O)(=O)NC3CC3)c2)CC1 [Example 146, 1-Ethyl-4-{3-[2(4-fluorotolyl)-]4-chloro-5-cyclopropaneaminosulfonyl}phenylpiperazine] | 13.2 | 0.83 | 349 | –
CCN1CCN(c2cc(CCF)c(OC)c(-c3ccccc3)c2)CC1 [Example 76, 1-Ethyl-4-[3-phenyl-4-methoxy-5-(2-fluoroetheyl)]phenylpiperazine] | 145 | 50.1 | 112 | –
CCC(=O)c1cc(-c2ccccc2)cc(N2CCN(CC)CC2)c1 [Example 130, 1-Ethyl-4-(3-phenyl-5-propionyl)phenylpiperazine] | 58 | – | 70.4 | 29.7
CCN1CCN(c2cc(NS(=O)(=O)CC)c(Cl)c(-c3ccccc3C)c2)CC1 [Example 18, 1-Ethyl-4-[3-(2-tolyl)-4-chloro-5-ethanesulfonylamino]phenylpiperazine] | 6.15 | 0.75 | 53.7 | –
CCN1CCN(c2cc(-c3ccccc3)c(F)c(S(=O)(=O)CC)c2)CC1 [Example 149, 1-Ethyl-4-(3-phenyl-4-fluoro-5-ethanesulfonyl)phenylpiperazine] | 11.6 | 6.24 | 27.2 | –
CCCc1cc(N2CCN(CC)CC2)cc(-c2ccc(F)cc2)c1OC [Example 65] | 26.6 | 6.6 | 79 | –
CCN1CCN(c2cc(-c3ccccc3)c(OC)c(S(=O)(=O)N3CCCC3)c2)CC1 [Example 135, 1-Ethyl-4-[3-phenyl-4-methoxy-5-(1-pyrrolidinylsulfonyl)]phenylpiperazine] | 16 | 42.1 | > 1000 | –
COc1c(-c2ccccc2)cc(N2CCN(CCO)CC2)cc1-c1ccccc1 [Example 64] | 284 | 384 | 459 | –
CCNS(=O)(=O)c1cc(N2CCN(CC)CC2)cc(-c2ccccc2)c1OC [Example 123, 1-Ethyl-4-(3-phenyl-4-methoxy-5-ethylaminofonyl)phenylpiperazine] | 17.9 | 27 | > 1000 | –
CCN1CCN(c2cc(C#N)c(OC)c(-c3ccccc3)c2)CC1 [Example 89, 1-Ethyl-4-(3-phenyl-4-methoxy-5-cyano)phenylpiperazine] | 310 | – | > 1000 | 44.6
CCC(CC)c1cc(N2CCN(CC)CC2)cc(-c2ccccc2C)c1Cl [Example 157, 1-Ethyl-4-[3-(2-tolyl)-4-chloro-5-(1-ethylpropyl)]phenylpiperazine] | 74.4 | 7.26 | > 1000 | –
CCN1CCN(c2cc(C(=O)c3ccccn3)c(OC)c(-c3ccccc3)c2)CC1 [Example 109, 1-Ethyl-4-[3-phenyl-4-methoxy-5-(2-pyridylcarbonyl)]phenylpiperazine] | 230 | > 1000 | > 1000 | –
CCCc1cc(N2CCN(CC)CC2)cc(-c2ccc(OC)cc2)c1OC [Example 73, 1-Ethyl-4-[3-(4-methoxphenyl)-4-methoxy-5-propyl]phenylpiperazine] | 635 | 577 | 332 | –
O=C(Cc1ccccc1)c1cc(N2CCNCC2)cc(-c2ccccc2)c1O [Example 118, 1-(3-Phenyl-4-hyroxy-5-phenylaectyl)phenylpiperazine] | 468 | 149 | > 1000 | –
CCN1CCN(c2cc(-c3ccccc3)c(OC)c(C(C)(C)O)c2)CC1 [Example 80] | 177 | 810 | > 1000 | –
CCN1CCN(c2cc(-c3ccccc3)c(OC)c(S(=O)(=O)CC)c2)CC1 [Example 133, 1-Ethyl-4-(3-phenyl-4-methoxy-5-ethanesulfonyl)phenylpiperazine] | 9.02 | 28.7 | > 1000 | –
